Assay results as given in patent US4833134A, “Cephem compounds” (Takeda Chemical Industries, Ltd., priority 1986, dated 1989).
Where a name gives a salt, the structure may show the parent alone.

Experiments:
[1] = test system: Staphylococcus aureus 1840; experiment: MIC (minimum inhibitory concentration), agar dilution method; type: cell-based; details: trypticase soy agar, ca. 10^8 CFU/ml, 37° C., 18 hours
Experimental: (§1) The MIC value of the test compound was determined by agar dilution method. More specifically, 1.0 ml of an aqueous solution of the test compound diluted serially was poured into a petri dish, to which were added 9.0 ml of trypticase soy agar, followed by mixing. On the mixed agar plate was spread a suspension of the test microorganism (ca. 10^8 CFU/ml), which was incubated at 37° C. for 18 hours. The lowest concentration of the test compound completely inhibiting the growth of the test microorganism was expressed by MIC (minimum inhibitory concentration).
(1) Staphylococcus aureus 1840

Escherichia coli T7 = experiment: as above; type: cell-based; details: trypticase soy agar, ca. 10^8 CFU/ml, 37° C., 18 hours
Experimental: as §1

CCON=C(C(=O)NC1C(=O)N2C(C(=O)[O-])=C(C[n+]3ccc(SCCCN)cc3)CSC12)c1csc(N)n1 (stereo not drawn) [Example 2, 7β-[2-(2-aminothiazol-4-yl)-(Z)-2-ethoxyiminoacetamido]-3-{[4-(3-aminopropylthio)-1-pyridinium]methyl}-3-cephem-4-carboxylate hydrochloride]
MIC [1]: 0.78 µg/mL
MIC (Escherichia coli T7): 0.2 µg/mL
